Test results reported in PubChem BioAssay AID248 (DTP/NCI, 2004).
Several values for one entry are separate records, joined by “and”; a condition that tells them apart may be missing. Equal values may be shown once. Inconclusive results and toxic doses are left out. Cut-off read from the data, not from the text of the source: active = T/C of 150% or more; inactive = T/C below 125%.

Tested on: L1210 leukemia ip in BDF1 mice, survival T/C
Assay: NCI In Vivo Anticancer Drug Screen. Data for tumor model L1210 Leukemia (intraperitoneal) in B6D2F1 (BDF1) mice
Details: endpoint: mean survival time, higher = longer survival
Summary of the method: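 In this screen, tumor-bearing mice given compound are compared to those given vehicle, and their survival values are reported as a treated-to-control quotient.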

[1] = dose: 50.0 mg/kg/injection, schedule: Q04DX002 (ip), vehicle: Klucel (hydroxypropylcellulose) (HPC)
[2] = dose: 100.0 mg/kg/injection, schedule: Q01DX009 (ip), vehicle: Klucel (hydroxypropylcellulose) (HPC)
[3] = dose: 100.0 mg/kg/injection, schedule: Q04DX002 (ip), vehicle: Klucel (hydroxypropylcellulose) (HPC)
[4] = dose: 200.0 mg/kg/injection, schedule: Q04DX002 (ip), vehicle: Klucel (hydroxypropylcellulose) (HPC)
[5] = dose: 100.0 mg/kg/injection, schedule: Q01DX009 (ip), vehicle: saline with Tween-80
[6] = dose: 100.0 mg/kg/injection, schedule: Q04DX003 (ip), vehicle: saline with Tween-80
[7] = dose: 200.0 mg/kg/injection, schedule: Q01DX009 (ip), vehicle: saline with Tween-80
[8] = dose: 200.0 mg/kg/injection, schedule: Q04DX003 (ip), vehicle: saline with Tween-80
[9] = dose: 400.0 mg/kg/injection, schedule: Q04DX003 (ip), vehicle: saline with Tween-80
[10] = dose: 100.0 mg/kg/injection, schedule: Q01DX001 (ip), vehicle: saline
[11] = dose: 50.0 mg/kg/injection, schedule: Q01DX001 (ip), vehicle: carboxymethylcellulose (CMC)
[12] = dose: 100.0 mg/kg/injection, schedule: Q01DX001 (ip), vehicle: carboxymethylcellulose (CMC)
[13] = dose: 200.0 mg/kg/injection, schedule: Q01DX001 (ip), vehicle: carboxymethylcellulose (CMC)
[14] = dose: 100.0 mg/kg/injection, schedule: Q01DX001 (ip), vehicle: Klucel (hydroxypropylcellulose) (HPC)
[15] = dose: 200.0 mg/kg/injection, schedule: Q01DX001 (ip), vehicle: Klucel (hydroxypropylcellulose) (HPC)
[16] = dose: 400.0 mg/kg/injection, schedule: Q01DX001 (ip), vehicle: Klucel (hydroxypropylcellulose) (HPC)
[17] = dose: 200.0 mg/kg/injection, schedule: Q01DX009 (ip), vehicle: Klucel (hydroxypropylcellulose) (HPC)
[18] = dose: 400.0 mg/kg/injection, schedule: Q01DX009 (ip), vehicle: Klucel (hydroxypropylcellulose) (HPC)

Measured: T/C

Cc1cc(C(C)(C)C)ccc1S(=O)(=O)/C=C/c1ccccc1
inactive: dose: 100.0 mg/kg/injection, schedule: Q01DX001 (ip), vehicle: acetone 95 % of control | dose: 100.0 mg/kg/injection, schedule: Q01DX009 (ip), vehicle: saline 93 % of control | dose: 200.0 mg/kg/injection, schedule: Q01DX001 (ip), vehicle: acetone 97 % of control | dose: 200.0 mg/kg/injection, schedule: Q01DX009 (ip), vehicle: saline 88 % of control | dose: 400.0 mg/kg/injection, schedule: Q01DX001 (ip), vehicle: acetone 92 % of control | dose: 400.0 mg/kg/injection, schedule: Q01DX009 (ip), vehicle: saline 88 % of control

O=C(N/N=C/C=C/c1ccccc1)c1ccco1
inactive: dose: 100.0 mg/kg/injection, schedule: Q01DX001 (ip), vehicle: other 87 % of control | dose: 200.0 mg/kg/injection, schedule: Q01DX001 (ip), vehicle: other 87 % of control | dose: 400.0 mg/kg/injection, schedule: Q01DX001 (ip), vehicle: other 93 % of control

O=C(O)C(=C(c1ccccc1)c1ccccc1)c1cccc2ccccc12
inactive: [1] 98 % of control | [2] 101 % of control | [3] 100 % of control | [4] 100 % of control

CC(C)(Cl)Cc1ccccc1
inactive: [5] 88 % of control | [6] 103 % of control | [7] 91 % of control | [8] 105 % of control | [9] 94 % of control

CCC(c1ccc(OC)cc1)C(CC)c1ccc(OCCN2CCCC2)cc1 (stereo unspecified)
inactive: dose: 12.5 mg/kg/injection, schedule: Q01DX001 (ip), vehicle: saline 94 % of control | dose: 25.0 mg/kg/injection, schedule: Q01DX001 (ip), vehicle: saline 94 % of control | dose: 50.0 mg/kg/injection, schedule: Q01DX001 (ip), vehicle: saline 95 % of control | [10] 97 % of control

C/C=C/C(=O)Nc1ccccc1
inactive: [11] 97 % of control | [12] 100 % of control | [13] 113 % of control

CC1(C)CC(=O)C(C)(C)C(=O)C1 (tested in a mixture with another compound)
inactive: dose: 25.0 mg/kg/injection, schedule: Q04DX002 (ip), vehicle: Klucel (hydroxypropylcellulose) (HPC) 102 % of control | [1] 96 % of control | [3] 108 % of control

CCCCCCCCCOc1ccc(C=O)cc1OC
inactive: [14] 93 % of control | [15] 102 % of control | [16] 100 % of control

COC(=O)Nc1ccccc1
inactive: [14] 97 % of control | dose: 100.0 mg/kg/injection, schedule: Q04DX002 (ip), vehicle: gum acacia 113 % of control | [15] 98 % of control | dose: 200.0 mg/kg/injection, schedule: Q04DX002 (ip), vehicle: gum acacia 100 % of control | [16] 101 % of control | dose: 400.0 mg/kg/injection, schedule: Q04DX002 (ip), vehicle: gum acacia 103 % of control

On1ccc(N2CCOCC2)cc1=NC1CCCCC1
inactive: dose: 5.0 mg/kg/injection, schedule: Q01DX001 (ip), vehicle: saline 95 % of control | dose: 10.0 mg/kg/injection, schedule: Q01DX001 (ip), vehicle: saline 97 % of control | dose: 20.0 mg/kg/injection, schedule: Q01DX001 (ip), vehicle: saline 90 % of control | dose: 40.0 mg/kg/injection, schedule: Q01DX001 (ip), vehicle: saline 98 % of control | dose: 80.0 mg/kg/injection, schedule: Q01DX001 (ip), vehicle: saline 101 % of control | [10] 103 % of control

Cc1cc(C)c(-c2c(C)cc(C)cc2CBr)c(CBr)c1
inactive: [2] 108 % of control | [17] 99 % of control | [18] 99 % of control

CC(C)(C)c1ccc(SCCN=C(N)CSS(=O)(=O)O)cc1
inactive: dose: 3.13 mg/kg/injection, schedule: Q01DX009 (ip), vehicle: Klucel (hydroxypropylcellulose) (HPC) 91 % of control | dose: 3.13 mg/kg/injection, schedule: Q04DX002 (ip), vehicle: Klucel (hydroxypropylcellulose) (HPC) 98 % of control | dose: 6.25 mg/kg/injection, schedule: Q01DX009 (ip), vehicle: Klucel (hydroxypropylcellulose) (HPC) 102 % of control | dose: 6.25 mg/kg/injection, schedule: Q04DX002 (ip), vehicle: Klucel (hydroxypropylcellulose) (HPC) 107 % of control | dose: 12.5 mg/kg/injection, schedule: Q04DX002 (ip), vehicle: Klucel (hydroxypropylcellulose) (HPC) 98 % of control and 106 % of control

O=C(O)Cc1n[nH]c(=O)c2ccccc12
inactive: [3] 93 % of control | [4] 99 % of control | dose: 400.0 mg/kg/injection, schedule: Q04DX002 (ip), vehicle: Klucel (hydroxypropylcellulose) (HPC) 102 % of control

CCCCN(Cc1ccccc1)C(=O)NC(C)(C)C
inactive: [2] 97 % of control | [17] 102 % of control | [18] 97 % of control

C/C(C(=O)O)=C(/Cl)c1c(C)cc(C)c(Br)c1C
inactive: dose: 100.0 mg/kg/injection, schedule: Q01DX001 (ip), vehicle: gum acacia 89 % of control | dose: 100.0 mg/kg/injection, schedule: Q01DX009 (ip), vehicle: gum acacia 108 % of control | dose: 200.0 mg/kg/injection, schedule: Q01DX001 (ip), vehicle: gum acacia 93 % of control | dose: 200.0 mg/kg/injection, schedule: Q01DX009 (ip), vehicle: gum acacia 105 % of control | dose: 400.0 mg/kg/injection, schedule: Q01DX001 (ip), vehicle: gum acacia 91 % of control

O=C(O)CCCC1CCC(=O)CC1
inactive: dose: 100.0 mg/kg/injection, schedule: Q04DX003 (ip), vehicle: saline 109 % of control | dose: 200.0 mg/kg/injection, schedule: Q04DX003 (ip), vehicle: saline 96 % of control | dose: 400.0 mg/kg/injection, schedule: Q04DX003 (ip), vehicle: saline 100 % of control

O=C1Nc2ccccc2Cc2ccccc21
inactive: [5] 93 % of control | [6] 102 % of control | [7] 92 % of control | [8] 102 % of control | [9] 107 % of control

C=CC[n+]1ccccc1Br
inactive: dose: 62.0 mg/kg/injection, schedule: Q01DX015 (ip), vehicle: water 102 % of control | dose: 125.0 mg/kg/injection, schedule: Q01DX015 (ip), vehicle: water 106 % of control

N#C/C(=C1/N=C(N)NC1=O)c1ccc(Cl)cc1
inactive: dose: 25.0 mg/kg/injection, schedule: Q01DX001 (ip), vehicle: saline with Tween-80 92 % of control | dose: 50.0 mg/kg/injection, schedule: Q01DX001 (ip), vehicle: saline with Tween-80 89 % of control | dose: 100.0 mg/kg/injection, schedule: Q01DX001 (ip), vehicle: saline with Tween-80 94 % of control

CCC(CC)(C(=O)O)C(=O)O
inactive: dose: 25.0 mg/kg/injection, schedule: Q04DX003 (ip), vehicle: Klucel (hydroxypropylcellulose) (HPC) 93 % of control | dose: 50.0 mg/kg/injection, schedule: Q04DX003 (ip), vehicle: Klucel (hydroxypropylcellulose) (HPC) 90 % of control | dose: 100.0 mg/kg/injection, schedule: Q04DX003 (ip), vehicle: Klucel (hydroxypropylcellulose) (HPC) 96 % of control and 88 % of control

OCCOc1c(Cl)c(C(Cl)(Cl)Cl)nc2ccccc12
inactive: dose: 25.0 mg/kg/injection, schedule: Q01DX001 (ip), vehicle: Klucel (hydroxypropylcellulose) (HPC) 103 % of control | dose: 50.0 mg/kg/injection, schedule: Q01DX001 (ip), vehicle: Klucel (hydroxypropylcellulose) (HPC) 106 % of control | [14] 106 % of control

N#C/C(=C/c1cccc2ccccc12)C(N)=O
inactive: dose: 100.0 mg/kg/injection, schedule: Q04DX002 (ip), vehicle: saline with Tween-80 98 % of control | dose: 200.0 mg/kg/injection, schedule: Q04DX002 (ip), vehicle: saline with Tween-80 91 % of control | dose: 400.0 mg/kg/injection, schedule: Q04DX002 (ip), vehicle: saline with Tween-80 98 % of control

O=P(NC1CCCCC1)(Oc1ccccc1)Oc1ccccc1
inactive: [11] 95 % of control | [12] 92 % of control | [6] 102 % of control | [13] 97 % of control | [8] 97 % of control | dose: 400.0 mg/kg/injection, schedule: Q01DX001 (ip), vehicle: carboxymethylcellulose (CMC) 97 % of control | [9] 100 % of control
